Counter-ions that a name gives are not always drawn.
Test: Lidocaine release from gels (dialysis tubing)
Assay type: physicochemical
Conditions: PBS, 37° C.
Procedure: HA and HA-DVS-MBA (83.3% substitution) gels were prepared in a similar manner as described in Example 18 using 0.75% BDDE and a pH of 13.1. About 2 g of each gel were added to a vial and 105 uL of a 6% (w/w) lidocaine HCl in PBS solution was added to each sample. After mixing, the samples were autoclaved for 5 minutes at 121° C. Approx. 1.5 g of each gel was transferred to dialysis tubing (Aldon Corporation, IS13027, 6.4 mm×10 mm, cut-off: 12-14 kDa). […] The loaded dialysis tubing was placed in separate 45 ml PBS solutions and incubated at 37° C. under oscillating conditions. […] The lidocaine content was measured using HPLC. The percent release was determined by released amount divided by the initial amount added. The release of the lidocaine from the HA and HA-MBA gels was similar.

SMILES: CCN(CC)CC(=O)Nc1c(C)cccc1C [Lidocaine only, lidocaine HCl]
- Cumulative Release (%) (Time 0.5 hr): 82%
- Cumulative Release (%) (Time 1 hr): 87%
- Cumulative Release (%) (Time 1.5 hr): 86%
- Cumulative Release (%) (Time 2 hr): 84%
- Cumulative Release (%) (Time 3.5 hr): 82%

— patent publication US20240033283A1, “FUNCTIONALIZED AND CROSSLINKED POLYMERS” (PMIDG, LLC, priority 2020, published 2024)
